Experimental data published in patent US8653111B2, “Substituted dihydropyrazolones for treating cardiovascular and hematological diseases” (Bayer Intellectual Property GmbH, priority 2006, dated 2014).
Where a name gives a salt, the structure may show the parent alone.

molecular target: HIF prolyl hydroxylase; assay: Inhibition of the activity of HIF prolyl hydroxylase (VBC complex binding to hydroxylated peptide substrate); type: biochemical; details: cell lysate containing prolyl hydroxylase, peptide biotin-DLDLEMLAPYIPMDDDFQL as substrate
Experimental: 1. In vitro Tests for Determination of the Activity and Selectivity of HIF Prolyl 4-Hydroxylase Inhibitors 1.a) Inhibition of the Activity of HIF Prolyl Hydroxylase:
Hydroxylated HIF bonds specifically to the von Hippel-Lindau protein-elongin B-elongin C complex (VBC complex). This interaction occurs only if HIF is hydroxylated on a conserved prolyl radical. It is the basis for the biochemical determination of HIF prolyl hydroxylase activity. The test is carried out as described [Oehme F., Jonghaus W., Narouz-Ott L., Huetter J., Flamme I., Anal. Biochem. 330 (1), 74-80 (2004)]:
A clear 96-well microtiter plate coated with NeutrAvidin HBC (Pierce) is incubated with blocker casein for 30 minutes. The plate is then washed three times with 200 μl each time of wash buffer (50 mM Tris, pH 7.5, 100 mM NaCl, 10% (v/v) blocker casein, 0.05% (v/v) Tween 20) per well. The peptide biotin-DLDLEMLAPYIPMDDDFQL (Eurogentec, 4102 Seraing, Belgium) is added in a concentration of 400 nM in 100 μl wash buffer. This peptide serves as a substrate for the prolyl hydroxylation and is bonded to the microtiter plate. After incubation for 60 minutes, the plate is washed three times with wash buffer, incubated with 1 mM biotin in blocker casein for 30 minutes and then washed again three times with wash buffer.
To carry out the prolyl hydroxylase reaction, the peptide substrate bonded to the plate is incubated with a cell lysate containing prolyl hydroxylase for 1 to 60 minutes. The reaction takes place in 100 μl reaction buffer (20 mM Tris, pH 7.5, 5 mM KCl, 1.5 mM MgCl2, 1 μM-1 mM 2-oxoglutarate, 10 μM FeSO4, 2 mM ascorbate) at room temperature. The reaction mixture moreover contains various concentrations of the prolyl hydroxylase inhibitor to be tested. The test substance is preferably, but not exclusively, employed at concentrations of between 1 nM and 100 μM. The reaction is stopped by washing the plate three times with wash buffer.
For quantitative determination of the prolyl hydroxylation, a fusion protein which contains both thioredoxin from E. coli and the VBC complex in 80 μl bonding buffer (50 mM Tris, pH 7.5, 120 mM NaCl) is added. After 15 minutes, 10 μl of a solution of polyclonal anti-thioredoxin antibodies from rabbit in bonding buffer are added. After a further 30 minutes, 10 μl of a solution of anti-rabbit immunoglobulin coupled to horseradish peroxidase in bonding buffer are added. After incubation at room temperature for 30 minutes, the plate is washed three times with wash buffer in order to remove non-bonded VBC complex and antibodies. To determine the amount of bonded VBC complex, the plate is incubated with TMB for 15 minutes. The color reaction is ended by addition of 100 μl 1 M sulfuric acid. The amount of bonded VBC complex is determined by measurement of the optical density at 450 nm. It is proportional to the amount of hydroxylated proline in the peptide substrate.
Alternatively, a VBC complex coupled to europium (Perkin Elmer) can be used for detection of the prolyl hydroxylation. In this case, the amount of bonded VBC complex is determined by the fluorescence with respect to time. The use of VBC complex labeled with [^35S]-methionine is moreover possible. For this, the radioactively labeled VBC complex can be prepared by in vitro transcription-translation in reticulocyte lysate.

Question: How did the IC50 turn out when `CCSc1cc(-n2[nH]cc(-n3ccnn3)c2=O)ncn1` [Example 103, 2-[6-(Ethylsulfanyl)pyrimidin-4-yl]-4-(1H-1,2,3-triazol-1-yl)-1,2-dihydro-3H-pyrazol-3-one hydrochloride] was run?
Answer: 350 nM

Question: How did the IC50 turn out when `O=c1c(-n2cnc(C(F)(F)F)c2)c[nH]n1-c1ccc(CO)cn1` [Example 12, 2-[5-(Hydroxymethyl)pyridin-2-yl]-4-[4-(trifluoromethyl)-1H-imidazol-1-yl]-1,2-dihydro-3H-pyrazol-3-one] was run?
Answer: 750 nM

Question: Which IC50 does the source give for `Cc1cc(-c2c[nH]n(-c3ccccn3)c2=O)on1` [Example 50] here?
Answer: 1400 nM

Question: For `Cc1ccnc(-n2[nH]cc(-n3ccnn3)c2=O)c1` [Example 7, 2-(4-Methylpyridin-2-yl)-4-(1H-1,2,3-triazol-1-yl)-1,2-dihydro-3H-pyrazol-3-one hydrochloride], which IC50 is on record?
Answer: 340 nM

Question: How did the IC50 turn out when `CC1CCN(c2cc(-n3[nH]cc(-n4ccnn4)c3=O)ncn2)CC1` [Example 129] was run?
Answer: 360 nM

Question: With `O=c1c(-n2ccnc2)c[nH]n1-c1cc(N2CC(O)C2)ncn1` [Example 101, 2-[6-(3-Hydroxyazetidin-1-yl)pyrimidin-4-yl]-4-(1H-imidazol-1-yl)-1,2-dihydro-3H-pyrazol-3-one hydrochloride] as the compound, how does the IC50 read?
Answer: 1700 nM

Question: With `O=c1c(-c2nnc(C(F)(F)F)s2)c[nH]n1-c1ccccn1` [Example 5] as the compound, how does the IC50 read?
Answer: 1200 nM

Question: How did the IC50 turn out when `CCc1cc(-n2[nH]cc(-n3cnc(C(F)(F)F)c3)c2=O)ncn1` [Example 60] was run?
Answer: 1400 nM

Question: Which IC50 does the source give for `O=c1c(-n2ccnn2)c[nH]n1-c1cc(N2CCSCC2)ncn1` [Example 113] here?
Answer: 740 nM

Question: Which IC50 does the source give for `Cc1cn(-c2c[nH]n(-c3cnccn3)c2=O)nn1` [Example 43] here?
Answer: 1800 nM

Question: Which IC50 does the source give for `CC(C)(C)OC(=O)c1ccc(-n2[nH]cc(-n3ccnn3)c2=O)nc1` [Example 62, 6-[5-Oxo-4-(1H-1,2,3-triazol-1-yl)-2,5-dihydro-1H-pyrazol-1-yl]pyridine-3-carboxylic acid tert-butyl ester hydrochloride] here?
Answer: 50 nM

Question: Which IC50 does the source give for `O=c1c(-n2ccnn2)c[nH]n1-c1cc(N2CCOCC2)ncn1` [Example 72, 2-(6-Morpholin-4-ylpyrimidin-4-yl)-4-(1H-1,2,3-triazol-1-yl)-1,2-dihydro-3H-pyrazol-3-one hydrochloride] here?
Answer: 490 nM

Question: `Cc1cc(-n2[nH]cc(-n3ccnn3)c2=O)ncc1Br` [Example 61] was tested. Which IC50 did it give?
Answer: 1100 nM

Question: With `O=c1c(-n2ccnn2)c[nH]n1-c1cc(C(F)(F)F)ccn1` [Example 83, 4-(1H-1,2,3-Triazol-1-yl)-2-[4-(trifluoromethyl)pyridin-2-yl]-1,2-dihydro-3H-pyrazol-3-one hydrochloride] as the compound, how does the IC50 read?
Answer: 1900 nM

Question: `O=c1c(-n2ccnn2)c[nH]n1-c1cc(C2CC2)ncn1` [Example 17, 2-(6-Cyclopropylpyrimidin-4-yl)-4-(1H-1,2,3-triazol-1-yl)-1,2-dihydro-3H-pyrazol-3-one hydrochloride] was tested. Which IC50 did it give?
Answer: 560 nM

Question: `CC(C)c1cn(-c2c[nH]n(-c3ccc(CO)cn3)c2=O)nn1` [Example 45] was tested. Which IC50 did it give?
Answer: 780 nM

Question: For `CC(C)(C)COc1ccc(-n2[nH]cc(-n3ccnn3)c2=O)nc1` [Example 85, 2-[5-(2,2-Dimethylpropoxy)pyridin-2-yl]-4-(1H-1,2,3-triazol-1-yl)-1,2-dihydro-3H-pyrazol-3-one hydrochloride], which IC50 is on record?
Answer: 190 nM

Question: `Cc1cnc(-n2[nH]cc(-n3ccnc3)c2=O)cc1C` [Example 91, 2-(4,5-Dimethylpyridin-2-yl)-4-(1H-imidazol-1-yl)-1,2-dihydro-3H-pyrazol-3-one hydrochloride] was tested. Which IC50 did it give?
Answer: 2800 nM

Question: For `COC1CCCN(c2cc(-n3[nH]cc(-n4ccnc4)c3=O)ncn2)C1` (centres unmarked) [Example 166], which IC50 is on record?
Answer: 690 nM

Question: For `O=c1c(-n2ccnc2)c[nH]n1-c1cc(N2CCCCC2)ncn1` [Example 10, 4-(1H-Imidazol-1-yl)-2-(6-piperidin-1-ylpyrimidin-4-yl)-1,2-dihydro-3H-pyrazol-3-one], which IC50 is on record?
Answer: 500 nM
